How the values were obtained:
Parameters in all cases: scale not given: the % may be the effect or the level left
[1] = biological target: Inactive tyrosine-protein kinase PEAK1 (Homo sapiens) (UniProt Q9H792); experiment: Inhibition of human PEAK1 assessed as enzyme activity at 1 uM using poly[Glu:Tyr] (4:1) as substrate preincubated for 20 mins followed by [gamma-33P]-ATP addition and measured after 120 mins by radiometric Hot-SpotSM Kinase assay relative to control
[2] = biological target: Casein kinase I isoform gamma-1 (Homo sapiens) (UniProt Q9HCP0); experiment: Inhibition of human CK1g1 assessed as enzyme activity at 1 uM using KRRRAL[pS]VASLPGL as substrate preincubated for 20 mins followed by [gamma-33P]-ATP addition and measured after 120 mins by radiometric Hot-SpotSM Kinase assay relative to control
Chain of Casein kinase I isoform gamma-1 (Homo sapiens) (Q9HCP0 whole entry, looked up, canonical isoform): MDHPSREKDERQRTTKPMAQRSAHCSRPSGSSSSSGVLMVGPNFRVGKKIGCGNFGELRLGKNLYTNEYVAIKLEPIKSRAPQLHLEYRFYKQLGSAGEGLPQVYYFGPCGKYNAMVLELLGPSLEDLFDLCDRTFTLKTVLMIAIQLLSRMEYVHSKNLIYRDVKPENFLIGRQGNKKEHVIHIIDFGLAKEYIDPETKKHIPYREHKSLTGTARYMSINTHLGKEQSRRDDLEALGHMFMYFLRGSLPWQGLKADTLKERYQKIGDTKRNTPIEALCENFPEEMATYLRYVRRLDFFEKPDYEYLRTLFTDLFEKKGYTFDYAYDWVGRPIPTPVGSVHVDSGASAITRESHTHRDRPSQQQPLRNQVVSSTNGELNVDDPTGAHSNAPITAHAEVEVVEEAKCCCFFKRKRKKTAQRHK

[3] = biological target: T1, Serine/threonine-protein kinase BRSK1 (Homo sapiens) (UniProt Q8TDC3); experiment: Inhibition of human BRSK1 assessed as enzyme activity at 1 uM using KKKVSRSGLYRSPSMPENLNRPR as substrate preincubated for 20 mins followed by [gamma-33P]-ATP addition and measured after 120 mins by radiometric Hot-SpotSM Kinase assay relative to control
T1 sequence (whole entry): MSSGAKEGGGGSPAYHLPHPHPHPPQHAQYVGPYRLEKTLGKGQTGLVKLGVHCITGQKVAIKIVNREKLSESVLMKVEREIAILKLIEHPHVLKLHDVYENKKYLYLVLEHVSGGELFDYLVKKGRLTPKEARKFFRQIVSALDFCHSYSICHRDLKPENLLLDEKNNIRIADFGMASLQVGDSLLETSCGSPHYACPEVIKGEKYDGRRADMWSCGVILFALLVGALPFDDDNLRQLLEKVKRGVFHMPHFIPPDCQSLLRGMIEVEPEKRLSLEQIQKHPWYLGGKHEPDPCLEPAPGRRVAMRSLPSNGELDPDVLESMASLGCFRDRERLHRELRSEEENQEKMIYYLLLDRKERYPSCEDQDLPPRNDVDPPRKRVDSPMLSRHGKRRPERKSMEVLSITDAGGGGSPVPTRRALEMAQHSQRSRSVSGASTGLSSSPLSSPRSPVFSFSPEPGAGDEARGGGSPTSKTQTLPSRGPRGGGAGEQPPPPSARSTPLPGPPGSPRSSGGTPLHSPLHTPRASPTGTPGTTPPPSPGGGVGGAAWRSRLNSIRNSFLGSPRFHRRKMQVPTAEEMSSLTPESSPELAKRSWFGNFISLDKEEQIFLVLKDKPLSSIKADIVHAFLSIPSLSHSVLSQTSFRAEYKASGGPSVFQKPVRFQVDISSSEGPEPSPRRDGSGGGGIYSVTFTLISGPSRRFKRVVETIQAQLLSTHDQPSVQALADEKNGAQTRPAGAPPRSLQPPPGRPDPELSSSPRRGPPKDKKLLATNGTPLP

[4] = biological target: Cyclin-dependent kinase 5/CDK5 activator 1 (Homo sapiens) (UniProt Q00535+Q15078); experiment: Inhibition of human CDK5/p35 assessed as enzyme activity at 1 uM using RB Protein as substrate preincubated for 20 mins followed by [gamma-33P]-ATP addition and measured after 120 mins by radiometric Hot-SpotSM Kinase assay relative to control; type: protein-complex assay
Chain of Cyclin-dependent kinase 5/CDK5 activator 1 (Homo sapiens) (Q00535 whole entry): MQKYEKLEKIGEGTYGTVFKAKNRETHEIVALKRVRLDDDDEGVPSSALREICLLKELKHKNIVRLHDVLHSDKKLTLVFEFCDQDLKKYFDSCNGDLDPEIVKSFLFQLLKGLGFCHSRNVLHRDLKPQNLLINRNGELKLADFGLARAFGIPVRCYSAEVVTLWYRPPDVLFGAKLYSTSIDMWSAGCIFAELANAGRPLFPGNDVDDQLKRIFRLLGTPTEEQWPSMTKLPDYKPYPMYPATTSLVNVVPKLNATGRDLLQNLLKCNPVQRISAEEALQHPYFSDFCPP
Chain of Cyclin-dependent kinase 5/CDK5 activator 1 (Homo sapiens) (Q15078 99-307 partner limits assumed): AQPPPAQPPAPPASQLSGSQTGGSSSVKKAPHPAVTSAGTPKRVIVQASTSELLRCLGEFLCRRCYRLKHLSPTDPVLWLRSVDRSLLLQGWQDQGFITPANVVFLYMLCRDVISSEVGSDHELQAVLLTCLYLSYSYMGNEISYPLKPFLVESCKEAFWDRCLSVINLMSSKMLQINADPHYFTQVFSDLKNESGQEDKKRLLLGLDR

[5] = biological target: Homeodomain-interacting protein kinase 1 (Homo sapiens) (UniProt Q86Z02); experiment: Inhibition of human HIPK1 assessed as enzyme activity at 1 uM using myelin basic protein as substrate preincubated for 20 mins followed by [gamma-33P]-ATP addition and measured after 120 mins by radiometric Hot-SpotSM Kinase assay relative to control
Chain of Homeodomain-interacting protein kinase 1 (Homo sapiens) (Q86Z02 whole entry, looked up): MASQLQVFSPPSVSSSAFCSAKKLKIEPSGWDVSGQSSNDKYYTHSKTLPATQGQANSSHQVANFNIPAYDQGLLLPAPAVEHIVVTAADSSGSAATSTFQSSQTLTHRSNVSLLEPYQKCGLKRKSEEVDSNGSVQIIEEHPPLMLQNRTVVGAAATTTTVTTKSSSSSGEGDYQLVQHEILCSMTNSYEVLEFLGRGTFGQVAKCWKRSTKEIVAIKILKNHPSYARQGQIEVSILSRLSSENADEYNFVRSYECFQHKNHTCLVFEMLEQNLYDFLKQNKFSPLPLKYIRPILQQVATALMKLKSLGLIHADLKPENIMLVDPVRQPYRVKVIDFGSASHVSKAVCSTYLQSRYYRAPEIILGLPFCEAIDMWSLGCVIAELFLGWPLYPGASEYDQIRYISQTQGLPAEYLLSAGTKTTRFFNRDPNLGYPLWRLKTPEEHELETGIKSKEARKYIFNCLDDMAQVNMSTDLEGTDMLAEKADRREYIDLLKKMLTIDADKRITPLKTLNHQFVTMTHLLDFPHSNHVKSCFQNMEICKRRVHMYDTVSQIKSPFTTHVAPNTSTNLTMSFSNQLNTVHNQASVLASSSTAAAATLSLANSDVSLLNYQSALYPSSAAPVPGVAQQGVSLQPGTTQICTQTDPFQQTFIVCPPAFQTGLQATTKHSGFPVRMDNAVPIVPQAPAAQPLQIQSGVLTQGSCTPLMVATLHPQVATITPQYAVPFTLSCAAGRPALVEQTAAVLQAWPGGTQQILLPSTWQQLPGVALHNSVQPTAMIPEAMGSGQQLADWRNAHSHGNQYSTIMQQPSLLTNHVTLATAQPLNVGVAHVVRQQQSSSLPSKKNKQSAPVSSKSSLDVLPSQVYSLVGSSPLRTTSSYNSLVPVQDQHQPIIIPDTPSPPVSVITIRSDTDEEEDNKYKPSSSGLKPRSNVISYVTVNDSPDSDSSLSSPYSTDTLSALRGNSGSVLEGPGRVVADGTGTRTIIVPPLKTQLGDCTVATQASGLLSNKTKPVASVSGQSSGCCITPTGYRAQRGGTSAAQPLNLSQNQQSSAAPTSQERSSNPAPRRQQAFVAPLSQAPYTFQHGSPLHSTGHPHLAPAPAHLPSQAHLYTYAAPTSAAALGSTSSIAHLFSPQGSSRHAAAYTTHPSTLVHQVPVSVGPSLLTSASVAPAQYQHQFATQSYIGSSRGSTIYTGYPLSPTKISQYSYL

[6] = biological target: Proto-oncogene tyrosine-protein kinase Src (Homo sapiens) (UniProt P12931); experiment: Inhibition of human c-Src assessed as enzyme activity at 1 uM using poly[Glu:Tyr] (4:1) as substrate preincubated for 20 mins followed by [gamma-33P]-ATP addition and measured after 120 mins by radiometric Hot-SpotSM Kinase assay relative to control
[7] = biological target: Ribosomal protein S6 kinase alpha-2 (Homo sapiens) (UniProt Q15349); experiment: Inhibition of human RSK3 assessed as enzyme activity at 1 uM using KKLNRTLSVA as substrate preincubated for 20 mins followed by [gamma-33P]-ATP addition and measured after 120 mins by radiometric Hot-SpotSM Kinase assay relative to control
[8] = biological target: Activin receptor type-1-like (Homo sapiens) (UniProt P37023); experiment: Inhibition of human ALK1 assessed as enzyme activity at 1 uM using casein as substrate preincubated for 20 mins followed by [gamma-33P]-ATP addition and measured after 120 mins by radiometric Hot-SpotSM Kinase assay relative to control
Chain of Activin receptor type-1-like (Homo sapiens) (P37023 whole entry): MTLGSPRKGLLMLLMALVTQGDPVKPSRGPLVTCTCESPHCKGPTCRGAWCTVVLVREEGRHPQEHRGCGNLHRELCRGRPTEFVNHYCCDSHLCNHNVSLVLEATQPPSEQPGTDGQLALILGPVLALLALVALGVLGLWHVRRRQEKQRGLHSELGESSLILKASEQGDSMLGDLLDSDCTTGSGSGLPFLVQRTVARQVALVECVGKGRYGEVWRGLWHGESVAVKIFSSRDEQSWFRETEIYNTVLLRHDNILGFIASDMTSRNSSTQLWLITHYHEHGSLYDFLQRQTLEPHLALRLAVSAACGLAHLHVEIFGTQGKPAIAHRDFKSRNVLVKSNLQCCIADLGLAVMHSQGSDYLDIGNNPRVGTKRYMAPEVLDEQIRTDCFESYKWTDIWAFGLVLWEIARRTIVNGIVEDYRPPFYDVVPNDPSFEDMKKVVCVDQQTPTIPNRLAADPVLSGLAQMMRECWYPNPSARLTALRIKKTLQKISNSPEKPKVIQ

[9] = biological target: Aurora kinase B (Homo sapiens) (UniProt Q96GD4); experiment: Inhibition of human Aurora B assessed as enzyme activity at 1 uM using H-LRRASLG as substrate preincubated for 20 mins followed by [gamma-33P]-ATP addition and measured after 120 mins by radiometric Hot-SpotSM Kinase assay relative to control
Chain of Aurora kinase B (Homo sapiens) (Q96GD4 whole entry): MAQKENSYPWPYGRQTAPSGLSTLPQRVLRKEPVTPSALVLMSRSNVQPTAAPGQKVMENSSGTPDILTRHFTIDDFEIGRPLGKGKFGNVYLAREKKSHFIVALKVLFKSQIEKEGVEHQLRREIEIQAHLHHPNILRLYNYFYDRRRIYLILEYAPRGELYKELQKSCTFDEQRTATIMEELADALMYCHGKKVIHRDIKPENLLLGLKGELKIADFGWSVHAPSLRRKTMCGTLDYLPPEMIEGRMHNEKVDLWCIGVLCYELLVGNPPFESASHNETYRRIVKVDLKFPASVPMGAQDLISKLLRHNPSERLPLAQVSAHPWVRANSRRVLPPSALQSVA

[10] = biological target: Serine/threonine-protein kinase Nek6 (Homo sapiens) (UniProt Q9HC98); experiment: Inhibition of human NEK6 assessed as enzyme activity at 1 uM using casein as substrate preincubated for 20 mins followed by [gamma-33P]-ATP addition and measured after 120 mins by radiometric Hot-SpotSM Kinase assay relative to control
Chain of Serine/threonine-protein kinase Nek6 (Homo sapiens) (Q9HC98 whole entry): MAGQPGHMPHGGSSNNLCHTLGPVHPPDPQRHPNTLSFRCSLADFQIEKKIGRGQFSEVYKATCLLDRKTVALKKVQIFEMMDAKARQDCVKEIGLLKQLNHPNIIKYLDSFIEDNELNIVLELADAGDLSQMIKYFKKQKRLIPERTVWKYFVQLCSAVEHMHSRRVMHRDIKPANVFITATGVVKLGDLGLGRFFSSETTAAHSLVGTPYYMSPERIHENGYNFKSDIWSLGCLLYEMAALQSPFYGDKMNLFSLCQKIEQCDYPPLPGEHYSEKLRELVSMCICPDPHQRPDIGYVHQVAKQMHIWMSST

[11] = biological target: Fibroblast growth factor receptor 4 (Homo sapiens) (UniProt P22455); experiment: Inhibition of human FGFR4 assessed as enzyme activity at 1 uM using poly[Glu:Tyr] (4:1) as substrate preincubated for 20 mins followed by [gamma-33P]-ATP addition and measured after 120 mins by radiometric Hot-SpotSM Kinase assay relative to control

Chain of Inactive tyrosine-protein kinase PEAK1 (Homo sapiens) (Q9H792 whole entry, canonical isoform): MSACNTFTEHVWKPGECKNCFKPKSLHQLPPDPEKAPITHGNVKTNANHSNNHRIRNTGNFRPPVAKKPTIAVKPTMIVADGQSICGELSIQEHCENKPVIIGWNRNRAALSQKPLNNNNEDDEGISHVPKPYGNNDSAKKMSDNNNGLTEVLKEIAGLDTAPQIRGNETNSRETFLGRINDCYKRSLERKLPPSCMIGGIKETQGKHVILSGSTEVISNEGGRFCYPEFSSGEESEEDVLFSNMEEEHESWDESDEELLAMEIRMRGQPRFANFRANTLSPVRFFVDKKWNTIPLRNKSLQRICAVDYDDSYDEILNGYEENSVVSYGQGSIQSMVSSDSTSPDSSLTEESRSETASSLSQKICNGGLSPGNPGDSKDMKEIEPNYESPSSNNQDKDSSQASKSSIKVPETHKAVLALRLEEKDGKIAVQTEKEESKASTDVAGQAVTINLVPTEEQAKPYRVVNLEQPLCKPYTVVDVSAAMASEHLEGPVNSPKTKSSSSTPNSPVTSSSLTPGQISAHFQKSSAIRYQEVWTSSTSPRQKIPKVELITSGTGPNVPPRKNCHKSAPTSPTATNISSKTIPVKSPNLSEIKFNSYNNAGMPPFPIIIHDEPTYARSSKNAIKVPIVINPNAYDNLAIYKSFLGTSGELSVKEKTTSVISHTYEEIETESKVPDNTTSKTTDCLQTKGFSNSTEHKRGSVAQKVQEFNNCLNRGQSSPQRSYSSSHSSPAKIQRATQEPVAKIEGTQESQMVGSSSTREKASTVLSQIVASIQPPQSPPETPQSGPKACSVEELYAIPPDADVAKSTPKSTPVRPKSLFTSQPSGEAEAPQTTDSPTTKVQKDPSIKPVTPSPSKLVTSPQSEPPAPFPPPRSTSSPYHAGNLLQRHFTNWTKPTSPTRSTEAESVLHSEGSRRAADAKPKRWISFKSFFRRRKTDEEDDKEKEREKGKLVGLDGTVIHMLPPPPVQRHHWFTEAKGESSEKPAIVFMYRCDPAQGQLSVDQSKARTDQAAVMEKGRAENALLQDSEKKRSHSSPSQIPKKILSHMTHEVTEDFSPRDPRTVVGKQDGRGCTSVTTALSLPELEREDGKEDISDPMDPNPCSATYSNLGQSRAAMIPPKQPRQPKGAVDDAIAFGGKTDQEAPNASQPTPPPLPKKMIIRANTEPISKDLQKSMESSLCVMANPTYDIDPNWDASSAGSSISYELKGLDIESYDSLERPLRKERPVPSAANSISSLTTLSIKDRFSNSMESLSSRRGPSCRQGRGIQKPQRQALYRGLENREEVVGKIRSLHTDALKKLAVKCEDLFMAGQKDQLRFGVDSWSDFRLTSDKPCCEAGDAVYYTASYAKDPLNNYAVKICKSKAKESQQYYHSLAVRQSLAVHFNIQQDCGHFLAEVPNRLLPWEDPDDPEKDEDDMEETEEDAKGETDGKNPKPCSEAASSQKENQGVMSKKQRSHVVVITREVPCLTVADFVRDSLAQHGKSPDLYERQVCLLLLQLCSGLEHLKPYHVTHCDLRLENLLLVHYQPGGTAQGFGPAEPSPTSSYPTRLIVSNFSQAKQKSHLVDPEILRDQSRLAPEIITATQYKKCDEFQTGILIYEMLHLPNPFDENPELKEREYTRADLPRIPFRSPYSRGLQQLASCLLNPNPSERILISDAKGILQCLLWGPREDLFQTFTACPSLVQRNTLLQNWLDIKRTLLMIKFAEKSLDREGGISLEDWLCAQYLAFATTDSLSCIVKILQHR

Row | SMILES | Activity [1] | Activity [2] | Activity [3] | Activity [4] | Activity [5] | Activity [6] | Activity [7] | Activity [8] | Activity [9] | Activity [10] | Activity [11]
1 | C[C@H](Nc1ncnc2nc[nH]c12)c1cc2cccc(Cl)c2c(=O)n1-c1ccccc1 | 89.4% | 98.3% | 92.5% | 97.1% | 103% | 86.7% | 94.1% | 96.4% | 95.6% | 92.6% | 94.5%
2 | CC[C@H](Nc1ncnc2[nH]cnc12)c1nc2cccc(F)c2c(=O)n1-c1ccccc1 | 93.3% | 105% | 89.1% | 97.4% | 102% | 85.2% | 98.3% | 96.6% | 95.6% | 93.2% | 97.3%
3 | CC(C)Oc1ccc(-c2nn([C@@H](C)c3oc4ccc(F)cc4c(=O)c3-c3cccc(F)c3)c3ncnc(N)c23)cc1F [UMBRALISIB] | 95% | 97.6% | 87.9% | 91.7% | 101% | 87.6% | 101% | 104% | 97.2% | 97.7% | 93.2%

From ChEMBL document CHEMBL5715954, “Silencing c-Myc translation as a therapeutic strategy through targeting PI3Kδ and CK1ε in hematological malignancies” (Blood, 2017)
